Results published in PubChem BioAssay AID2060499 (Molecular Pharmacology Branch, DTP, NCI, 2025).

System: 777334-354-R2-J4-PDC tumor spheroids with HUVEC/MSC, viability
Experiment: Anticancer human tumor 777334-354-R2-J4-PDC patient-derived pancreatic adenocarcinoma cell line growth inhibition [GQUAD]
Conditions: for IC50: curve of first compound; for viability, T/C: stronger effect = lower value
In short: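 Viability of tumor cells grown as complex spheroids with endothelial and stromal cells, exposed to drug combinations. Top concentration at or near clinical Cmax (else 10 microM), diluted in half-log increments.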
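Also: spheroids exposed to compounds for 7 days before readout.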

C#Cc1c(F)ccc2cc(O)cc(-c3ncc4c(N5CC6CCC(C5)N6)nc(OCC56CCCN5CC(F)C6)nc4c3F)c12 (configuration not stated) + CN(C)c1ccc(Nc2c3ccc(NC(=O)CCN4CCCC4)cc3nc3cc(NC(=O)CCN4CCCC4)ccc23)cc1
IC50 (second compound 0.0316 µM): 33.7 nM | IC50 (second compound 0.1 µM): 36.1 nM | IC50 (second compound 0.316 µM): < 31.6 nM | IC50 (second compound 1 µM): < 31.6 nM | IC50 (second compound 3.16 µM): < 31.6 nM | IC50 (second compound 10 µM): < 31.6 nM | viability, T/C (second compound 0.0316 µM, first compound 0.0316 µM): 51% | viability, T/C (second compound 0.0316 µM, first compound 0.1 µM): 38.9% | viability, T/C (second compound 0.0316 µM, first compound 0.316 µM): 29.8% | viability, T/C (second compound 0.0316 µM, first compound 1 µM): 31.2% | viability, T/C (second compound 0.0316 µM, first compound 3.16 µM): 30.1% | viability, T/C (second compound 0.0316 µM, first compound 10 µM): 22.6% | viability, T/C (second compound 0.1 µM, first compound 0.0316 µM): 52.3% | viability, T/C (second compound 0.1 µM, first compound 0.1 µM): 38.7% | viability, T/C (second compound 0.1 µM, first compound 0.316 µM): 34.3% | viability, T/C (second compound 0.1 µM, first compound 1 µM): 28.4% | viability, T/C (second compound 0.1 µM, first compound 3.16 µM): 29.1% | viability, T/C (second compound 0.1 µM, first compound 10 µM): 21.5% | viability, T/C (second compound 0.316 µM, first compound 0.0316 µM): 46.9% | viability, T/C (second compound 0.316 µM, first compound 0.1 µM): 35% | viability, T/C (second compound 0.316 µM, first compound 0.316 µM): 36% | viability, T/C (second compound 0.316 µM, first compound 1 µM): 29% | viability, T/C (second compound 0.316 µM, first compound 3.16 µM): 26.5% | viability, T/C (second compound 0.316 µM, first compound 10 µM): 22.4% | viability, T/C (second compound 1 µM, first compound 0.0316 µM): 37.1% | viability, T/C (second compound 1 µM, first compound 0.1 µM): 38% | viability, T/C (second compound 1 µM, first compound 0.316 µM): 31.4% | viability, T/C (second compound 1 µM, first compound 1 µM): 27.8% | viability, T/C (second compound 1 µM, first compound 3.16 µM): 25.4% | viability, T/C (second compound 1 µM, first compound 10 µM): 23.7% | viability, T/C (second compound 3.16 µM, first compound 0.0316 µM): 38.6% | viability, T/C (second compound 3.16 µM, first compound 0.1 µM): 34.4% | viability, T/C (second compound 3.16 µM, first compound 0.316 µM): 32% | viability, T/C (second compound 3.16 µM, first compound 1 µM): 24.2% | viability, T/C (second compound 3.16 µM, first compound 3.16 µM): 22.6% | viability, T/C (second compound 3.16 µM, first compound 10 µM): 17.8% | viability, T/C (second compound 10 µM, first compound 0.0316 µM): 36.3% | viability, T/C (second compound 10 µM, first compound 0.1 µM): 32.3% | viability, T/C (second compound 10 µM, first compound 0.316 µM): 27.5% | viability, T/C (second compound 10 µM, first compound 1 µM): 19.6% | viability, T/C (second compound 10 µM, first compound 3.16 µM): 15.2% | viability, T/C (second compound 10 µM, first compound 10 µM): 10.3%
